{"source": "PubChem BioAssay (NCI)", "assay_in_all_cases": "NCI-60 cell line screen, 48 h", "key": {"[1]": {"system": "786-0 renal"}, "[2]": {"system": "A498 renal"}, "[3]": {"system": "A549 NSCLC"}, "[4]": {"system": "ACHN renal"}, "[5]": {"system": "BT-549 breast"}, "[6]": {"system": "CAKI-1 renal"}, "[7]": {"system": "COLO 205 colon"}, "[8]": {"system": "DU-145 prostate"}, "[9]": {"system": "HCC-2998 colon"}, "[10]": {"system": "HCT-116 colon"}, "[11]": {"system": "HCT-15 colon"}, "[12]": {"system": "HOP-62 NSCLC"}, "[13]": {"system": "HOP-92 NSCLC"}, "[14]": {"system": "HS 578T breast"}, "[15]": {"system": "HT29 colon"}, "[16]": {"system": "IGROV1 ovarian"}, "[17]": {"system": "K-562 leukemia"}, "[18]": {"system": "KM12 colon"}, "[19]": {"system": "LOX IMVI melanoma"}, "[20]": {"system": "M14 melanoma"}, "[21]": {"system": "MALME-3M melanoma"}, "[22]": {"system": "MCF7 breast"}, "[23]": {"system": "MDA-MB-231 breast"}, "[24]": {"system": "MDA-MB-435"}, "[25]": {"system": "MDA-N"}, "[26]": {"system": "MOLT-4 leukemia"}, "[27]": {"system": "NCI-H226 lung"}, "[28]": {"system": "NCI-H23 lung"}, "[29]": {"system": "NCI-H460 lung"}, "[30]": {"system": "NCI-H522 lung"}, "[31]": {"system": "NCI/ADR-RES ovarian"}, "[32]": {"system": "OVCAR-4 ovarian"}, "[33]": {"system": "OVCAR-5 ovarian"}, "[34]": {"system": "OVCAR-8 ovarian"}, "[35]": {"system": "PC-3 prostate"}, "[36]": {"system": "RPMI-8226 leukemia"}, "[37]": {"system": "RXF 393 renal"}, "[38]": {"system": "SF-268 CNS"}, "[39]": {"system": "SF-295 CNS"}, "[40]": {"system": "SF-539 CNS"}, "[41]": {"system": "SK-MEL-2 melanoma"}, "[42]": {"system": "SK-MEL-28 melanoma"}, "[43]": {"system": "SK-MEL-5 melanoma"}, "[44]": {"system": "SK-OV-3 ovarian"}, "[45]": {"system": "SN12C renal"}, "[46]": {"system": "SNB-19 CNS"}, "[47]": {"system": "SNB-75 CNS"}, "[48]": {"system": "SW-620 colon"}, "[49]": {"system": "T-47D breast"}, "[50]": {"system": "TK-10 renal"}, "[51]": {"system": "U251 CNS"}, "[52]": {"system": "UACC-257 melanoma"}, "[53]": {"system": "UACC-62 melanoma"}, "[54]": {"system": "UO-31 renal"}}, "note": "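Following 48 hours of exposure in 96-well plates, responses at five concentrations were used to interpolate endpoints linearly. Definition used: TGI = concentration required for complete inhibition of growth.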", "data": [{"smiles": "COc1ccc([C@H]2C=C(c3cc(F)c(Cl)cc3Cl)N=c3s/c(=C\\c4ccc(-c5ccc(Cl)cc5Cl)o4)c(=O)n32)cc1", "values": [{"measurement": "TGI", "setting": "[1]", "result": "> 100", "unit": "µM"}, {"measurement": "TGI", "setting": "[2]", "result": 6.58, "unit": "µM"}, {"measurement": "TGI", "setting": "[3]", "result": "> 100", "unit": "µM"}, {"measurement": "TGI", "setting": "[4]", "result": "> 100", "unit": "µM"}, {"measurement": "TGI", "setting": "[5]", "result": "> 100", "unit": "µM"}, {"measurement": "TGI", "setting": "[6]", "result": "> 100", "unit": "µM"}, {"measurement": "TGI", "setting": "[7]", "result": "> 100", "unit": "µM"}, {"measurement": "TGI", "setting": "[8]", "result": "> 100", "unit": "µM"}, {"measurement": "TGI", "setting": "[9]", "result": 47.8, "unit": "µM"}, {"measurement": "TGI", "setting": "[10]", "result": "> 100", "unit": "µM"}, {"measurement": "TGI", "setting": "[11]", "result": "> 100", "unit": "µM"}, {"measurement": "TGI", "setting": "[12]", "result": 45.3, "unit": "µM"}, {"measurement": "TGI", "setting": "[13]", "result": "> 100", "unit": "µM"}, {"measurement": "TGI", "setting": "[14]", "result": "> 100", "unit": "µM"}, {"measurement": "TGI", "setting": "[15]", "result": "> 100", "unit": "µM"}, {"measurement": "TGI", "setting": "[16]", "result": "> 100", "unit": "µM"}, {"measurement": "TGI", "setting": "[17]", "result": "> 100", "unit": "µM"}, {"measurement": "TGI", "setting": "[18]", "result": "> 100", "unit": "µM"}, {"measurement": "TGI", "setting": "[19]", "result": "> 100", "unit": "µM"}, {"measurement": "TGI", "setting": "[20]", "result": "> 100", "unit": "µM"}, {"measurement": "TGI", "setting": "[21]", "result": "> 100", "unit": "µM"}, {"measurement": "TGI", "setting": "[22]", "result": "> 100", "unit": "µM"}, {"measurement": "TGI", "setting": "[23]", "result": 70.2, "unit": "µM"}, {"measurement": "TGI", "setting": "[24]", "result": "> 100", "unit": "µM"}, {"measurement": "TGI", "setting": "[25]", "result": "> 100", "unit": "µM"}, {"measurement": "TGI", "setting": "[26]", "result": "> 100", "unit": "µM"}, {"measurement": "TGI", "setting": "[27]", "result": "> 100", "unit": "µM"}, {"measurement": "TGI", "setting": "[28]", "result": "> 100", "unit": "µM"}, {"measurement": "TGI", "setting": "[29]", "result": "> 100", "unit": "µM"}, {"measurement": "TGI", "setting": "[30]", "result": "> 100", "unit": "µM"}, {"measurement": "TGI", "setting": "[31]", "result": "> 100", "unit": "µM"}, {"measurement": "TGI", "setting": "[32]", "result": "> 100", "unit": "µM"}, {"measurement": "TGI", "setting": "[33]", "result": "> 100", "unit": "µM"}, {"measurement": "TGI", "setting": "[34]", "result": "> 100", "unit": "µM"}, {"measurement": "TGI", "setting": "[35]", "result": "> 100", "unit": "µM"}, {"measurement": "TGI", "setting": "[36]", "result": "> 100", "unit": "µM"}, {"measurement": "TGI", "setting": "[37]", "result": "> 100", "unit": "µM"}, {"measurement": "TGI", "setting": "[38]", "result": "> 100", "unit": "µM"}, {"measurement": "TGI", "setting": "[39]", "result": "> 100", "unit": "µM"}, {"measurement": "TGI", "setting": "[40]", "result": "> 100", "unit": "µM"}, {"measurement": "TGI", "setting": "[41]", "result": 48.3, "unit": "µM"}, {"measurement": "TGI", "setting": "[42]", "result": "> 100", "unit": "µM"}, {"measurement": "TGI", "setting": "[43]", "result": "> 100", "unit": "µM"}, {"measurement": "TGI", "setting": "[44]", "result": 65.2, "unit": "µM"}, {"measurement": "TGI", "setting": "[45]", "result": "> 100", "unit": "µM"}, {"measurement": "TGI", "setting": "[46]", "result": "> 100", "unit": "µM"}, {"measurement": "TGI", "setting": "[47]", "result": "> 100", "unit": "µM"}, {"measurement": "TGI", "setting": "[48]", "result": "> 100", "unit": "µM"}, {"measurement": "TGI", "setting": "[49]", "result": "> 100", "unit": "µM"}, {"measurement": "TGI", "setting": "[50]", "result": "> 100", "unit": "µM"}, {"measurement": "TGI", "setting": "[51]", "result": "> 100", "unit": "µM"}, {"measurement": "TGI", "setting": "[52]", "result": "> 100", "unit": "µM"}, {"measurement": "TGI", "setting": "[53]", "result": "> 100", "unit": "µM"}, {"measurement": "TGI", "setting": "[54]", "result": "> 100", "unit": "µM"}]}]}
